Active and inactive are the calls of the source. The rule behind the calls is not given here.
Test system: rodent carcinogenicity bioassays, tumor incidence
Assay: CCRIS carcinogenicity studies
Details: Species: MOUSE
Outline: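 Archive of carcinogenicity, mutagenicity, tumor promotion and tumor inhibition results drawn from journals, NCI reports and other sources, expert-reviewed; covers 1985-2011 and is no longer updated.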

## c1ccc2c(c1)cc1ccc3cccc4ccc2c1c34
Strain/Sex: NIGP(S)/FEMALE, Route: SUBCUTANEOUS, Dose: 0, 0.5, 1 MG IN 1% AQUEOUS GELATIN INJECTED IN THE SCAPULAR REGION OF NEWBORN MICE ONCE (STUDY DURATION: 9 WK), Dose: 0, 0.5, 1 MG IN 1% AQUEOUS GELATIN INJECTED IN THE SCAPULAR REGION OF NEWBORN MICE ONCE (STUDY DURATION: 9 WK), Tumor Site: Type of Lesion: LUNG: ADENOMA
  carcinogen call: active; positive
Strain/Sex: NIGP(S)/FEMALE, Route: SUBCUTANEOUS, Dose: 0, 40, 62.5, 125, 250, 500, 1000 UG INJECTED IN THE SCAPULAR REGION OF NEWBORN MICE ONCE (STUDY DURATION: 9 WK), Dose: 0, 40, 62.5, 125, 250, 500, 1000 UG INJECTED IN THE SCAPULAR REGION OF NEWBORN MICE ONCE (STUDY DURATION: 9 WK), Tumor Site: Type of Lesion: LUNG: ADENOMA
  carcinogen call: active; positive
Strain/Sex: NIGP(S)/MALE, Route: SUBCUTANEOUS, Dose: 0, 0.5, 1 MG IN 1% AQUEOUS GELATIN INJECTED IN THE SCAPULAR REGION OF NEWBORN MICE ONCE (STUDY DURATION: 9 WK), Dose: 0, 0.5, 1 MG IN 1% AQUEOUS GELATIN INJECTED IN THE SCAPULAR REGION OF NEWBORN MICE ONCE (STUDY DURATION: 9 WK), Tumor Site: Type of Lesion: LUNG: ADENOMA
  carcinogen call: active; positive
Strain/Sex: NIGP(S)/MALE, Route: SUBCUTANEOUS, Dose: 0, 40, 62.5, 125, 250, 500, 1000 UG INJECTED IN THE SCAPULAR REGION OF NEWBORN MICE ONCE (STUDY DURATION: 9 WK), Dose: 0, 40, 62.5, 125, 250, 500, 1000 UG INJECTED IN THE SCAPULAR REGION OF NEWBORN MICE ONCE (STUDY DURATION: 9 WK), Tumor Site: Type of Lesion: LUNG: ADENOMA
  carcinogen call: active; positive
Strain/Sex: SENCAR/FEMALE, Route: DERMAL, Dose: 0, 12.6, 25.2, 50.2, 101, 202 UG/WK FOR 50-52 WK (STUDY DURATION: 1 YR), Dose: 0, 12.6, 25.2, 50.2, 101, 202 UG/WK FOR 50-52 WK (STUDY DURATION: 1 YR), Tumor Site: Type of Lesion: SKIN: CARCINOMA
  carcinogen call: active; positive
Strain/Sex: SENCAR/MALE, Route: DERMAL, Dose: 0, 12.6, 25.2, 50.5, 101, 202 UG/WK FOR 50-52 WK (STUDY DURATION: 1 YR), Dose: 0, 12.6, 25.2, 50.5, 101, 202 UG/WK FOR 50-52 WK (STUDY DURATION: 1 YR), Tumor Site: Type of Lesion: SKIN: CARCINOMA
  carcinogen call: active; positive
Strain/Sex: STRAIN-A/FEMALE, Route: GAVAGE, Dose: 0, 1, 2, 3 UMOL IN 0.1 ML COTTONSEED OIL 1/WK FOR 8 WK (STUDY DURATION: 26 WK), Dose: 0, 1, 2, 3 UMOL IN 0.1 ML COTTONSEED OIL 1/WK FOR 8 WK (STUDY DURATION: 26 WK), Tumor Site: Type of Lesion: LUNG: ADENOMA, FORESTOMACH: TUMOR
  carcinogen call: active; positive
Strain/Sex: STRAIN-A/FEMALE, Route: INTRAPERITONEAL, Dose: 0, 1, 2, 3 UMOL IN 0.1 ML COTTONSEED OIL 1/WK FOR 8 WK (STUDY DURATION: 26 WK), Dose: 0, 1, 2, 3 UMOL IN 0.1 ML COTTONSEED OIL 1/WK FOR 8 WK (STUDY DURATION: 26 WK), Tumor Site: Type of Lesion: LUNG: ADENOMA, FORESTOMACH: TUMOR
  carcinogen call: active; positive
Strain/Sex: STRAIN-A/FEMALE, Route: INTRATRACHEAL, Dose: 0, 0.5, 1 MG ON CHARCOAL POWDER INSTILLED 8 TIMES (STUDY DURATION: 13 WK), Dose: 0, 0.5, 1 MG ON CHARCOAL POWDER INSTILLED 8 TIMES (STUDY DURATION: 13 WK), Tumor Site: Type of Lesion: LUNG: SQUAMOUS CELL CARCINOMA OR ADENOCARCINOMA
  carcinogen call: active; positive
Strain/Sex: STRAIN-A/FEMALE, Route: ORAL, Dose: 0, 16, 98 PPM IN DIET FOR 260 D (STUDY DURATION: 260 D), Dose: 0, 16, 98 PPM IN DIET FOR 260 D (STUDY DURATION: 260 D), Tumor Site: Type of Lesion: LUNG: TUMOR, FORESTOMACH: TUMOR
  carcinogen call: active; positive
Strain/Sex: STRAIN-A/FEMALE, Route: SUBCUTANEOUS, Dose: 0, 0.5, 1 MG IN 1% AQUEOUS GELATIN INJECTED IN THE SCAPULAR REGION OF NEWBORN MICE ONCE (STUDY DURATION: 9 WK), Dose: 0, 0.5, 1 MG IN 1% AQUEOUS GELATIN INJECTED IN THE SCAPULAR REGION OF NEWBORN MICE ONCE (STUDY DURATION: 9 WK), Tumor Site: Type of Lesion: LUNG: ADENOMA
  carcinogen call: active; positive
Strain/Sex: STRAIN-A/FEMALE, Route: SUBCUTANEOUS, Dose: 0, 40, 62.5, 125, 250, 500, 1000 UG FOR 9 WK (STUDY DURATION: 9 WK), Dose: 0, 40, 62.5, 125, 250, 500, 1000 UG FOR 9 WK (STUDY DURATION: 9 WK), Tumor Site: Type of Lesion: LUNG: ADENOMA
  carcinogen call: active; positive
Strain/Sex: STRAIN-A/FEMALE, Route: SUBCUTANEOUS, Dose: 0, 40, 62.5, 125, 250, 500, 1000 UG INJECTED IN THE SCAPULAR REGION OF NEWBORN MICE ONCE (STUDY DURATION: 9 WK), Dose: 0, 40, 62.5, 125, 250, 500, 1000 UG INJECTED IN THE SCAPULAR REGION OF NEWBORN MICE ONCE (STUDY DURATION: 9 WK), Tumor Site: Type of Lesion: LUNG: ADENOMA
  carcinogen call: active; positive
Strain/Sex: STRAIN-A/MALE, FEMALE, Route: INTRAPERITONEAL, Dose: 2 MG, 1/WK, Tumor Site: Type of Lesion: PERITONEAL CAVITY: FIBROSARCOMA
  carcinogen call: active; positive
Strain/Sex: STRAIN-A/MALE,FEMALE, Route: INTRAPERITONEAL, Tumor Site: Type of Lesion: PERITONEAL CAVITY: FIBROSARCOMA
  carcinogen call: active; positive
Strain/Sex: STRAIN-A/MALE, Route: INTRAPERITONEAL, Dose: 0-200 MG/KG IN TRICAPRYLIN ONCE (STUDY DURATION: 8 MO), Tumor Site: Type of Lesion: LUNG: ADENOMA
  carcinogen call: active; positive
Strain/Sex: STRAIN-A/MALE, Route: INTRAPERITONEAL, Dose: 0, 5, 10, 50, 100, 200 MG/KG BW ONCE (STUDY DURATION: 8 MO), Dose: 0, 5, 10, 50, 100, 200 MG/KG BW ONCE (STUDY DURATION: 8 MO), Tumor Site: Type of Lesion: LUNG: ADENOMA
  carcinogen call: active; positive
Strain/Sex: STRAIN-A/MALE, Route: SUBCUTANEOUS, Dose: 0, 0.5, 1 MG IN 1% AQUEOUS GELATIN INJECTED IN THE SCAPULAR REGION OF NEWBORN MICE ONCE (STUDY DURATION: 9 WK), Dose: 0, 0.5, 1 MG IN 1% AQUEOUS GELATIN INJECTED IN THE SCAPULAR REGION OF NEWBORN MICE ONCE (STUDY DURATION: 9 WK), Tumor Site: Type of Lesion: LUNG: ADENOMA
  carcinogen call: active; positive
Strain/Sex: STRAIN-A/MALE, Route: SUBCUTANEOUS, Dose: 0, 40, 62.5, 125, 250, 500, 1000 UG FOR 9 WK (STUDY DURATION: 9 WK), Dose: 0, 40, 62.5, 125, 250, 500, 1000 UG FOR 9 WK (STUDY DURATION: 9 WK), Tumor Site: Type of Lesion: LUNG: ADENOMA
  carcinogen call: active; positive
Strain/Sex: STRAIN-A/MALE, Route: SUBCUTANEOUS, Dose: 0, 40, 62.5, 125, 250, 500, 1000 UG INJECTED IN THE SCAPULAR REGION OF NEWBORN MICE ONCE (STUDY DURATION: 9 WK), Dose: 0, 40, 62.5, 125, 250, 500, 1000 UG INJECTED IN THE SCAPULAR REGION OF NEWBORN MICE ONCE (STUDY DURATION: 9 WK), Tumor Site: Type of Lesion: LUNG: ADENOMA
  carcinogen call: active; positive
Strain/Sex: SWISS/FEMALE, Route: DERMAL, Dose: 0, 1, 4, 8 NMOL IN 100 µL ACETONE 2/WK FOR 40 WK (STUDY DURATION: 48 WK), Dose: 0, 1, 4, 8 NMOL IN 100 µL ACETONE 2/WK FOR 40 WK (STUDY DURATION: 48 WK)
  carcinogen call: inactive; negative
